From patent US7049396B2, “Synthetic peptides that inhibit leukocyte superoxide anion production and/or attract leukocytes” (priority 1995, dated 2006)
Values after ≈ are worked out from the molar mass of the structure shown. Where a SMILES comes first, the peptide text is derived from it.

Assays:
[1] = system: whole-cell NADPH oxidase activity of porcine peripheral blood neutrophils; test: Whole-cell O2- production, ferricytochrome c reduction; assay type: cell-based
Description: Regulation of neutrophil O2^− production by PR-26 and PR-39. • (i) O2^− production assays. Whole-cell O2^− production by por-cine peripheral blood neutrophils was determined by the superoxide dismutase-inhibitable reduction of ferricytochrome c as previously described (Shi et al., 1994a). Cell-free O2^− production was measured as previously described (Leto et al., 1991) using 96-well plates and a Molecular Devices Thermomax microplate reader (Menlo Park, Calif.). Reactions (100 μl) contained 10^6 cell equivalents of human neutrophil cytosol and 5×10^5 cell equivalents of deoxycholate-solubilized membranes prepared from human peripheral blood neutrophils. Reaction mixtures contained 50 mM potassium phosphate (pH 7), 0.2 mM acetylated cytochrome c, 4 mM MgCl2, 1 mM EGTA, 10 μM FAD, 1 μM GTP-γS, and 200 μM NADPH. The reactions were initiated by addition of 40 μM arachidonic acid. Control reactions contained 5 μg of superoxide dismutase. Superoxide anion generation was calculated based on superoxide dismutase-inhibitable changes in cytochrome c absorbance observed at 551 nm. The reactions were followed for 20 min. after addition of arachidonic acid, with absorbance readings taken at 1-min. intervals. Maximum rates of superoxide generation were calculated from a linear least squares fit of 10 consecutive 1-min. data points. Determinations were based on reactions performed in duplicate. • (ii) Binding assays. Neutrophils were disrupted by sonication, and unbroken cells, debris, and granules were removed by centrifuigation (13,000×g for 60 min.). Cytosol fractions were prepared by centrifugation (100,000 g for 45 min.) of the supernatants to remove residual membranes. Cytosolic proteins (15 μg in reducing buffer) were separated on a 7.5% SDS PAGE gel, transferred to PVDF membranes, and probed with biotinylated PR-39 (0.3 μM) for 2 hr. Binding between PR-39 and cytosolic proteins were visualized by a chemiluminescent streptavidin alkaline phosphatase system using an Epson scanner (Torrance, Calif.) and the NIH Image program. PR-39 was labeled with biotin hydrazide at the carboxy-terminus (Pierce Chemical Co., Rockford, Ill.) and purified by gel filtration chromatography.

Streptococcus suis = test: MIC/MBC microdilution broth method; assay type: cell-based; conditions: Streptococcus suis
Description: (§1) Plates were incubated at 37° C. for 18 hr. […] Viable bacteria were counted. Tests were repeated on three different days. […] The results were expressed as the mean ± standard deviation. […] S. choleraesuis, ATCC 6962 was used in this experiment. […] Slides were stained with LeukoStat solutions (Fisher, Pittsburgh, Pa.). […] At least 200 neutrophils were examined. […] Tests were repeated on three different days. Results were expressed as the mean±standard deviation.

Escherichia coli, 25922 = test: MIC/MBC microdilution broth method; assay type: cell-based; conditions: Escherichia coli
Description: as §1

Salmonella typhimurium = test: MIC/MBC microdilution broth method; assay type: cell-based; conditions: Salmonella typhimurium
Description: as §1

Staphylococcus aureus = test: MIC/MBC microdilution broth method; assay type: cell-based; conditions: Staphylococcus aureus
Description: as §1

[2] = molecular target: 47 kDa neutrophil cytosol protein (Homo sapiens, UniProt P14598); test: Ligand-blot binding assay with biotinylated PR-39, human cytosol; conditions: biotinylated PR-39 probe
[3] = system: S. typhimurium, KSU isolate 7; test: Lawn-spotting antibacterial assay (S. typhimurium); assay type: cell-based, Salmonella typhimurium; conditions: 5 μl spotted, inactive segments up to 1 mg/ml
E. coli, ATTC 25922 = test: Lawn-spotting antibacterial assay (E. coli); assay type: cell-based, Escherichia coli; conditions: 5 μl spotted, inactive segments up to 1 mg/ml
S. typhimurium = test: Postantibiotic effect (PAE); assay type: cell-based, Salmonella typhimurium; conditions: 2 hr exposure
Description: as §1

[4] = system: 47 kDa neutrophil cytosol protein; test: Ligand-blot binding assay with biotinylated PR-39, porcine cytosol; conditions: biotinylated PR-39 probe
[5] = molecular target: T1, cell-free NADPH oxidase (human neutrophil cytosol and membranes) (Homo sapiens, UniProt P14598); test: Cell-free O2- production assay; assay type: biochemical
T1 construct: 10^6 cell equivalents of human neutrophil cytosol; from tissue; host or cells: human peripheral blood neutrophils (cytosol and deoxycholate-solubilized membranes)
T1 sequence (P14598 1-390): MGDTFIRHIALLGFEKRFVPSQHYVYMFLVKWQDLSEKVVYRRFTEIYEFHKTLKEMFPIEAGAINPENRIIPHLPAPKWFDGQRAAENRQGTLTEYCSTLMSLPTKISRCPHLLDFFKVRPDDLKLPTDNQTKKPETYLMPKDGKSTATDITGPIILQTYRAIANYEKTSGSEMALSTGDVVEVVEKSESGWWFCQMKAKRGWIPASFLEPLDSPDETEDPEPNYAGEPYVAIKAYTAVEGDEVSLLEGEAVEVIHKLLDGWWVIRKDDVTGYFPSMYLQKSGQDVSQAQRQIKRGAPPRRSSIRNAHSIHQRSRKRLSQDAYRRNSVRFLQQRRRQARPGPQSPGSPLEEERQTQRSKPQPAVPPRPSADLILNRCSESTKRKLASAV
Description: Reactions (100 μl) contained 10^6 cell equivalents of human neutrophil cytosol and 5×10^5 cell equivalents of deoxycholate-solubilized membranes prepared from human peripheral blood neutrophils. […] Control reactions contained 5 μg of superoxide dismutase. Superoxide anion generation was calculated based on superoxide dismutase-inhibitable changes in cytochrome c absorbance observed at 551 nm. The reactions were followed for 20 min. after addition of arachidonic acid, with absorbance readings taken at 1-min. intervals. […] Determinations were based on reactions performed in duplicate. • (ii) Binding assays. Neutrophils were disrupted by sonication, and unbroken cells, debris, and granules were removed by centrifuigation (13,000×g for 60 min.). Cytosol fractions were prepared by centrifugation (100,000 g for 45 min.) of the supernatants to remove residual membranes. Cytosolic proteins (15 μg in reducing buffer) were separated on a 7.5% SDS PAGE gel, transferred to PVDF membranes, and probed with biotinylated PR-39 (0.3 μM) for 2 hr. Binding between PR-39 and cytosolic proteins were visualized by a chemiluminescent streptavidin alkaline phosphatase system using an Epson scanner (Torrance, Calif.) and the NIH Image program. PR-39 was labeled with biotin hydrazide at the carboxy-terminus (Pierce Chemical Co., Rockford, Ill.) and purified by gel filtration chromatography.

SMILES: CC[C@H](C)[C@H](NC(=O)[C@H](CCCNC(=N)N)NC(=O)[C@@H]1CCCN1C(=O)[C@@H]1CCCN1C(=O)[C@H](CC(C)C)NC(=O)[C@H](CCCNC(=N)N)NC(=O)[C@@H]1CCCN1C(=O)[C@@H]1CCCN1C(=O)[C@H](Cc1ccccc1)NC(=O)[C@H](Cc1ccccc1)NC(=O)[C@@H]1CCCN1C(=O)[C@@H]1CCCN1C(=O)[C@@H]1CCCN1C(=O)[C@H](CCCNC(=N)N)NC(=O)[C@@H]1CCCN1C(=O)[C@H](CCCNC(=N)N)NC(=O)[C@@H]1CCCN1C(=O)[C@H](CC(C)C)NC(=O)[C@H](Cc1ccc(O)cc1)NC(=O)[C@@H]1CCCN1C(=O)[C@@H]1CCCN1C(=O)[C@H](CCCNC(=N)N)NC(=O)[C@@H]1CCCN1C(=O)[C@H](CCCNC(=N)N)NC(=O)[C@H](CCCNC(=N)N)NC(=O)[C@@H](N)CCCNC(=N)N)C(=O)N1CCC[C@H]1C(=O)N1CCC[C@H]1C(=O)NCC(=O)N[C@@H](Cc1ccccc1)C(=O)N1CCC[C@H]1C(=O)N1CCC[C@H]1C(=O)N[C@@H](CCCNC(=N)N)C(=O)N[C@@H](Cc1ccccc1)C(=O)N1CCC[C@H]1C(=O)N1CCC[C@H]1C(=O)N[C@@H](CCCNC(=N)N)C(=O)N[C@@H](Cc1ccccc1)C(=O)N1CCC[C@H]1C(=O)O [PR-39] (H-RRRPRPPYLPRPRPPPFFPPRLPPRIPPGFPPRFPPRFP-OH; N-terminus and C-terminus assumed)
- O2- generation by neutrophils ([1]; 5 μM, incubated at least 45 min. before PMA stimulation): significant reduction
- oxidase inhibition ([1]; 5 μM, longer pre-incubation periods before PMA): ~70%
- O2- generation by neutrophils ([1]; 20 μM added at the same time as PMA): did not affect
- MBC (Streptococcus suis): >64 µM
- MIC (Streptococcus suis): >64 µM
- MBC (Escherichia coli, 25922): 8 µM (≈ 37.8 µg/mL)
- MIC (Escherichia coli, 25922): 4 µM (≈ 18.9 µg/mL)
- MBC (Salmonella typhimurium): 4 µM (≈ 18.9 µg/mL)
- MIC (Salmonella typhimurium): 4 µM (≈ 18.9 µg/mL)
- MIC (Staphylococcus aureus): >250 µM
- binding to 47 kDa cytosolic protein [2]: bound
- antibacterial activity (clear zone on bacterial lawn) [3]: had antibacterial activity
- antibacterial activity (clear zone on bacterial lawn) (E. coli, ATTC 25922): had antibacterial activity
- PAE (growth delay) (S. typhimurium; 0.1 MIC): slight growth delay
- PAE (S. typhimurium; 1 MIC): significantly increased
- PAE (S. typhimurium; 8 MICs): significantly increased
- binding to 47 kDa cytosolic protein [4]: bound
- IC50 [5]: ~2000 nM
- inhibition of O2- generation ([5]; cell-free assay, concentrations greater than 5 μM): completely inhibited
